Data reported in patent US11649241B2, “Pyrazolochlorophenyl compounds, compositions and methods of use thereof” (Genentech, Inc., priority 2017, dated 2023).

What was measured:
[1] = target: isolated recombinant JAK1 kinase domain (Homo sapiens (Human), UniProt P23458); test: JAK enzyme assay (Caliper LabChip peptide phosphorylation), JAK1; assay type: biochemical; settings: 1.5 nM JAK1, ATP 25 μM, Morrison tight binding model
[2] = target: isolated recombinant JAK2 kinase domain (Homo sapiens (Human), UniProt O60674); test: JAK enzyme assay (Caliper LabChip peptide phosphorylation), JAK2; assay type: biochemical; settings: 0.2 nM JAK2, ATP 25 μM, Morrison tight binding model
[3] = test system: JAK1-dependent STAT6 phosphorylation downstream of IL-13 stimulation (TF-1 / BEAS-2B cells); test: JAK1 pathway assay in cell lines (IL-13-stimulated pSTAT6, MSD); assay type: cell-based; settings: Homo sapiens, inhibition of STAT6 phosphorylation, cell line (TF-1 or BEAS-2B) not specified
Procedure: JAK1 Pathway Assay in Cell Lines was Carried Out as Follows:
Inhibitor potency (EC50) was determined in cell-based assays designed to measure JAK1 dependent STAT phosphorylation. As noted above, inhibition of IL-4, IL-13, and IL-9 signalling by blocking the Jak/Stat signaling pathway can alleviate asthmatic symptoms in pre-clinical lung inflammation models (Mathew et al., 2001, J Exp Med 193(9): 1087-1096; Kudlacz et. al., 2008, Eur J. Pharmacol 582(1-3): 154-161).
In one assay approach, TF-1 human erythroleukemia cells obtained from the American Type Culture Collection (ATCC; Manassas, Va.) were used to measure JAK1-dependent STAT6 phosphorylation downstream of IL-13 stimulation. Prior to use in the assays, TF-1 cells were starved of GM-CSF overnight in OptiMEM medium (Life Technologies, Grand Island, N.Y.) supplemented with 0.5% charcoal/dextran stripped fetal bovine serum (FBS), 0.1 mM non-essential amino acids (NEAA), and 1 mM sodium pyruvate. The assays were run in 384-well plates in serum-free OptiMEM medium using 300,000 cells per well. In a second assay approach, BEAS-2B human bronchial epithelial cells obtained from ATCC were plated at 100,000 cells per well of a 96-well plate one day prior to the experiment. The BEAS-2B assay was run in complete growth medium (bronchial epithelial basal medium plus bulletkit; Lonza; Basel, Switzerland).
Test compounds were serially diluted 1:2 in DMSO and then diluted 1:50 in medium just before use. Diluted compounds were added to the cells, for a final DMSO concentration of 0.2%, and incubated for 30 min (for the TF-1 assay) or 1 hr (for the BEAS-2B assay) at 37° C. Then, cells were stimulated with human recombinant cytokine at their respective EC90 concentrations, as previously determined for each individual lot. Cells were stimulated with IL-13 (R&D Systems, Minneapolis, Minn.) for 15 min at 37° C. The TF-1 cell reactions were stopped by the direct addition of 10× lysis buffer (Cell Signaling Technologies, Danvers, Mass.), whereas the BEAS-2B cell incubations were halted by the removal of medium and addition of 1× lysis buffer. The resultant samples were frozen in the plates at −80° C. Compound mediated inhibition of STAT6 phosphorylation was measured in the cell lysates using MesoScale Discovery (MSD) technology (Gaithersburg, Md.). EC50 values were determined as the concentration of compound required for 50% inhibition of STAT phosphorylation relative to that measured for the DMSO control.

isolated recombinant JAK1 kinase domain, sequence (P23458 875-1153): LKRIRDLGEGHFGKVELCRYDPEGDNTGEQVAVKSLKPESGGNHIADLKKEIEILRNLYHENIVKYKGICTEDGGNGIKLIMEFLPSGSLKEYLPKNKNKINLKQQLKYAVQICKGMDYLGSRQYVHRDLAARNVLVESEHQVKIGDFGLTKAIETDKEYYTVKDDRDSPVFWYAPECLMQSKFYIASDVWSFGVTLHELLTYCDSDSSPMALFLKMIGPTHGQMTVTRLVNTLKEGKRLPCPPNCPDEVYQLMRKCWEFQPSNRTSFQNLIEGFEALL
isolated recombinant JAK2 kinase domain, sequence (O60674 849-1124): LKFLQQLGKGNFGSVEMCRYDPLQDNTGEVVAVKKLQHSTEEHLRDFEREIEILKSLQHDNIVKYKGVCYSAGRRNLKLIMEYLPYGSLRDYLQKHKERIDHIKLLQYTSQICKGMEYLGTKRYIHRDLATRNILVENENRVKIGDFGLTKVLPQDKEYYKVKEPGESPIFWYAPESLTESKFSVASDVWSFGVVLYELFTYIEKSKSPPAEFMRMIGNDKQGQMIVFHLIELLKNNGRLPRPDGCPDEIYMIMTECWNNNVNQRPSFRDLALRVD

Row | Ki [1] | Ki [2] | SMILES | IC50 [3]
1 | 3.63 nM | 3.66 nM | COc1ccc(Cl)cc1-c1nn(C)cc1NC(=O)c1cncc2cn(C)nc12 [Example 1, N-(3-(5-Chloro-2-methoxyphenyl)-1-methyl-1H-pyrazol-4-yl)-2-methyl-2H-pyrazolo[4,3-c]pyridine-7-carboxamide] | 92.8 nM
2 | 1.35 nM | 0.35 nM | COc1ccc(Cl)cc1-c1nn(C)cc1NC(=O)c1cncc2cn[nH]c12 [Example 2, N-(3-(5-Chloro-2-methoxyphenyl)-1-methyl-1H-pyrazol-4-yl)-1H-pyrazolo[4,3-c]pyridine-7-carboxamide] | 35.9 nM
3 | 6.55 nM | 0.96 nM | COc1ccc(Cl)cc1-c1n[nH]cc1NC(=O)c1cncc2scnc12 [Example 3, N-(3-(5-Chloro-2-methoxyphenyl)-1H-pyrazol-4-yl)thiazolo[5,4-c]pyridine-7-carboxamide] | –
4 | 9.5 nM | 2.02 nM | O=C(Nc1c[nH]nc1-c1cc(Cl)ccc1OC(F)F)c1cncc2scnc12 [Example 4, N-(3-(5-chloro-2-(difluoromethoxy)phenyl)-1H-pyrazol-4-yl)thiazolo[5,4-c]pyridine-7-carboxamide] | –
5 | 0.97 nM | 0.06 nM | Nc1nc2c(C(=O)Nc3c[nH]nc3-c3cc(Cl)ccc3OC(F)F)cncc2s1 [Example 5, 2-amino-N-(3-(5-chloro-2-(difluoromethoxy)phenyl)-1H-pyrazol-4-yl)thiazolo[5,4-c]pyridine-7-carboxamide] | –
6 | 7.35 nM | 0.48 nM | O=C(Nc1c[nH]nc1-c1cc(Cl)ccc1OC(F)F)c1cncc2cn[nH]c12 [Example 6, N-(3-(5-chloro-2-(difluoromethoxy)phenyl)-1H-pyrazol-4-yl)-1H-pyrazolo[4,3-c]pyridine-7-carboxamide] | –
7 | 0.54 nM | 0.6 nM | O=C(Nc1c[nH]nc1-c1cc(Cl)ccc1OC(F)F)c1snc2cccnc12 [Example 7, N-(3-(5-chloro-2-(difluoromethoxy)phenyl)-1H-pyrazol-4-yl)isothiazolo[4,3-b]pyridine-3-carboxamide] | 20.2 nM
8 | 0.57 nM | 0.34 nM | O=C(Nc1c[nH]nc1-c1cc(Cl)ccc1OC(F)F)c1cnc2[nH]ccc2n1 [Example 8, N-(3-(5-chloro-2-(difluoromethoxy)phenyl)-1H-pyrazol-4-yl)-5H-pyrrolo[3,2-b]pyrazine-2-carboxamide] | –
9 | 0.49 nM | 0.17 nM | Nc1nn2cccnc2c1C(=O)Nc1c[nH]nc1-c1cc(Cl)ccc1OC(F)F [Example 9, 2-amino-N-(3-(5-chloro-2-(difluoromethoxy)phenyl)-1H-pyrazol-4-yl)pyrazolo[1,5-a]pyrimidine-3-carboxamide] | 7.9 nM
10 | 0.85 nM | 0.33 nM | O=C(Nc1c[nH]nc1-c1cc(Cl)ccc1OC(F)F)c1cncc2ccoc12 [Example 10, N-(3-(5-chloro-2-(difluoromethoxy)phenyl)-1H-pyrazol-4-yl)furo[3,2-c]pyridine-7-carboxamide] | 50.6 nM
11 | 0.56 nM | 0.49 nM | O=C(Nc1c[nH]nc1-c1cc(Cl)ccc1OC(F)F)c1coc2cccnc12 [Example 11, N-(3-(5-chloro-2-(difluoromethoxy)phenyl)-1H-pyrazol-4-yl)furo[3,2-b]pyridine-3-carboxamide] | 17.5 nM
12 | 0.41 nM | 0.09 nM | O=C(Nc1c[nH]nc1-c1cc(Cl)ccc1OC(F)F)c1cnn2cc(F)cnc12 [Example 12, N-(3-(5-chloro-2-(difluoromethoxy)phenyl)-1H-pyrazol-4-yl)-6-fluoropyrazolo[1,5-a]pyrimidine-3-carboxamide] | 16.8 nM
13 | 2.29 nM | 0.41 nM | Cc1ccn2ncc(C(=O)Nc3c[nH]nc3-c3cc(Cl)ccc3OC(F)F)c2n1 [Example 13, N-(3-(5-chloro-2-(difluoromethoxy)phenyl)-1H-pyrazol-4-yl)-5-methylpyrazolo[1,5-a]pyrimidine-3-carboxamide] | 41.5 nM
14 | 0.18 nM | 0.04 nM | COc1ccn2ncc(C(=O)Nc3c[nH]nc3-c3cc(Cl)ccc3OC(F)F)c2n1 [Example 14, N-(3-(5-chloro-2-(difluoromethoxy)phenyl)-1H-pyrazol-4-yl)-5-methoxypyrazolo[1,5-a]pyrimidine-3-carboxamide] | 3.8 nM
15 | 5.67 nM | 2.55 nM | O=C(Nc1c[nH]nc1-c1cc(Cl)ccc1OC(F)F)c1cncc2[nH]cnc12 [Example 15, N-(3-(5-chloro-2-(difluoromethoxy)phenyl)-1H-pyrazol-4-yl)-3H-imidazo[4,5-c]pyridine-7-carboxamide] | –
